Like-named read-outs stand apart in the source and are kept apart here. Positions of bridges follow the written chain, without caps; N, C: chain ends. Non-standard residues stand in square brackets, D forms with d. Residues, ends and D or L forms follow the SMILES beside them. Phe(4-I) = N[C@@H](Cc1ccc(I)cc1)C(=O)O; 1Nal = N[C@@H](Cc1cccc2ccccc12)C(=O)O
Tests used:
Assay in all cases: cell-based
hNav1.5 [1] = target: T1, hNav1.5 (Homo sapiens, UniProt Q14524); conditions: IonWorks Quattro; clamped to −110 mV, depolarized to −10 mV, 5 min after compound; n=2; read-out: IWQ Use Nav1.5
hNav1.7 [2] = target: T2, hNav1.7 (Homo sapiens, UniProt Q15858); assay type: cell-based
hNav1.3 [3] = target: T3, hNav1.3 (Homo sapiens, UniProt Q9NY46); assay type: cell-based; conditions: for IC50: Nav1.3 Use IC50
hNav1.3 [4] = target: T3, hNav1.3; conditions: IonWorks Quattro; clamped to −110 mV, depolarized to −10 mV, 5 min after compound; n=2; read-out: IWQ Use Nav1.3
hNav1.7 [5] = target: T2, hNav1.7; conditions: Nav1.7 Use IC50
hNav1.5 [6] = target: T1, hNav1.5
[7] = IonWorks Quattro, clamped to −110 mV, depolarized to −10 mV, 5 min after compound, n=2, read-out: IWQ Use Nav1.7

T3 sequence (Q9NY46 whole entry, looked up): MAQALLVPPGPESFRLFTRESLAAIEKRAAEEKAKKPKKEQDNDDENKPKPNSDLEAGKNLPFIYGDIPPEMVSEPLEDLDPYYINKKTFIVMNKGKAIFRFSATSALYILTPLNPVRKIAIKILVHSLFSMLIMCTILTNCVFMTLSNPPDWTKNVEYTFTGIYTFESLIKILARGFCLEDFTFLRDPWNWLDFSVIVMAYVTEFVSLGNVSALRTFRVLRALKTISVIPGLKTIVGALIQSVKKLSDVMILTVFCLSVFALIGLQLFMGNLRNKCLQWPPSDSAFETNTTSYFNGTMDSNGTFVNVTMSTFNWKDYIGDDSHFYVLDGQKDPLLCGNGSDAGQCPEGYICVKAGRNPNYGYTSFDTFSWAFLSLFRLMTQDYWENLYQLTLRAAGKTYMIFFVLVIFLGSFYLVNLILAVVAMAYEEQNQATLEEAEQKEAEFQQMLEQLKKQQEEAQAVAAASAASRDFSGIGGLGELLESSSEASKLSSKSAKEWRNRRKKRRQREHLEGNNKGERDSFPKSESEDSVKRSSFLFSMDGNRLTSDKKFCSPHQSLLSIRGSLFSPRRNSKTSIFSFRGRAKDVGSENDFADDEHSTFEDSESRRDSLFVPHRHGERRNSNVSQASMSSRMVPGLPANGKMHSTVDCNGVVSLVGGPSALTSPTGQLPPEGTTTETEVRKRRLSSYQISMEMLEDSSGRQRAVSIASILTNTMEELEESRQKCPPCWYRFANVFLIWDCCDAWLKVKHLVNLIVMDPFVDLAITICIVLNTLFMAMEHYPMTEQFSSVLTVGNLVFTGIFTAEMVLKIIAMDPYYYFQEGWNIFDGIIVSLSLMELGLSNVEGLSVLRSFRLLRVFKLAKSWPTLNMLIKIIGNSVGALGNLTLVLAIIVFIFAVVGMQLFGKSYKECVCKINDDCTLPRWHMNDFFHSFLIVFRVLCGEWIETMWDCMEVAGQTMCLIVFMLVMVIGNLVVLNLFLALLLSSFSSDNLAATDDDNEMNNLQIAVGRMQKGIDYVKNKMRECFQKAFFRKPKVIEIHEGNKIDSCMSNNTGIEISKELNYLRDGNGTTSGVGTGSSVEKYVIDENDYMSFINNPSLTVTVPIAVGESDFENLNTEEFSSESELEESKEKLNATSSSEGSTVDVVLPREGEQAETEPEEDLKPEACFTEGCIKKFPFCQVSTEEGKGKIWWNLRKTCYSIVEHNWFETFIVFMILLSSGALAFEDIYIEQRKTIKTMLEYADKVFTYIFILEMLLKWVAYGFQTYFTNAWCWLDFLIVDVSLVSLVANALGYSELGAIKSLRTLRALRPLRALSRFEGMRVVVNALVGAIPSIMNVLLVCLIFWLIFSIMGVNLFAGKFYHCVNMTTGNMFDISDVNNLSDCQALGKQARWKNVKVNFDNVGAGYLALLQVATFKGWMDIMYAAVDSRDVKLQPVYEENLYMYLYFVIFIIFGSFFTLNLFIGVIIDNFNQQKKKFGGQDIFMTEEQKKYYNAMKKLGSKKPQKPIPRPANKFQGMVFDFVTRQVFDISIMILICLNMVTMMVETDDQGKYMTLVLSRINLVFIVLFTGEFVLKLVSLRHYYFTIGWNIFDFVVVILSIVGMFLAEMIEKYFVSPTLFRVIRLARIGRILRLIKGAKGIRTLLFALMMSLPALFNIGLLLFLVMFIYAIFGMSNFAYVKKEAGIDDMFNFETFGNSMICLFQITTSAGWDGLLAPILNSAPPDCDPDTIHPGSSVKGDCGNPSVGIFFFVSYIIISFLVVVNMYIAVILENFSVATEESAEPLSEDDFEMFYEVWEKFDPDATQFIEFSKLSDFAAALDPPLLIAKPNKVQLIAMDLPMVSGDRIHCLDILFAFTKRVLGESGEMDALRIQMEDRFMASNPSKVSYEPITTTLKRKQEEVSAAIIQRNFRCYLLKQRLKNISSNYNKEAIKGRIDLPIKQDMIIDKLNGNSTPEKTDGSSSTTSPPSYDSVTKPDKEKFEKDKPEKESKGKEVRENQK
T2 sequence (Q15858 whole entry, looked up): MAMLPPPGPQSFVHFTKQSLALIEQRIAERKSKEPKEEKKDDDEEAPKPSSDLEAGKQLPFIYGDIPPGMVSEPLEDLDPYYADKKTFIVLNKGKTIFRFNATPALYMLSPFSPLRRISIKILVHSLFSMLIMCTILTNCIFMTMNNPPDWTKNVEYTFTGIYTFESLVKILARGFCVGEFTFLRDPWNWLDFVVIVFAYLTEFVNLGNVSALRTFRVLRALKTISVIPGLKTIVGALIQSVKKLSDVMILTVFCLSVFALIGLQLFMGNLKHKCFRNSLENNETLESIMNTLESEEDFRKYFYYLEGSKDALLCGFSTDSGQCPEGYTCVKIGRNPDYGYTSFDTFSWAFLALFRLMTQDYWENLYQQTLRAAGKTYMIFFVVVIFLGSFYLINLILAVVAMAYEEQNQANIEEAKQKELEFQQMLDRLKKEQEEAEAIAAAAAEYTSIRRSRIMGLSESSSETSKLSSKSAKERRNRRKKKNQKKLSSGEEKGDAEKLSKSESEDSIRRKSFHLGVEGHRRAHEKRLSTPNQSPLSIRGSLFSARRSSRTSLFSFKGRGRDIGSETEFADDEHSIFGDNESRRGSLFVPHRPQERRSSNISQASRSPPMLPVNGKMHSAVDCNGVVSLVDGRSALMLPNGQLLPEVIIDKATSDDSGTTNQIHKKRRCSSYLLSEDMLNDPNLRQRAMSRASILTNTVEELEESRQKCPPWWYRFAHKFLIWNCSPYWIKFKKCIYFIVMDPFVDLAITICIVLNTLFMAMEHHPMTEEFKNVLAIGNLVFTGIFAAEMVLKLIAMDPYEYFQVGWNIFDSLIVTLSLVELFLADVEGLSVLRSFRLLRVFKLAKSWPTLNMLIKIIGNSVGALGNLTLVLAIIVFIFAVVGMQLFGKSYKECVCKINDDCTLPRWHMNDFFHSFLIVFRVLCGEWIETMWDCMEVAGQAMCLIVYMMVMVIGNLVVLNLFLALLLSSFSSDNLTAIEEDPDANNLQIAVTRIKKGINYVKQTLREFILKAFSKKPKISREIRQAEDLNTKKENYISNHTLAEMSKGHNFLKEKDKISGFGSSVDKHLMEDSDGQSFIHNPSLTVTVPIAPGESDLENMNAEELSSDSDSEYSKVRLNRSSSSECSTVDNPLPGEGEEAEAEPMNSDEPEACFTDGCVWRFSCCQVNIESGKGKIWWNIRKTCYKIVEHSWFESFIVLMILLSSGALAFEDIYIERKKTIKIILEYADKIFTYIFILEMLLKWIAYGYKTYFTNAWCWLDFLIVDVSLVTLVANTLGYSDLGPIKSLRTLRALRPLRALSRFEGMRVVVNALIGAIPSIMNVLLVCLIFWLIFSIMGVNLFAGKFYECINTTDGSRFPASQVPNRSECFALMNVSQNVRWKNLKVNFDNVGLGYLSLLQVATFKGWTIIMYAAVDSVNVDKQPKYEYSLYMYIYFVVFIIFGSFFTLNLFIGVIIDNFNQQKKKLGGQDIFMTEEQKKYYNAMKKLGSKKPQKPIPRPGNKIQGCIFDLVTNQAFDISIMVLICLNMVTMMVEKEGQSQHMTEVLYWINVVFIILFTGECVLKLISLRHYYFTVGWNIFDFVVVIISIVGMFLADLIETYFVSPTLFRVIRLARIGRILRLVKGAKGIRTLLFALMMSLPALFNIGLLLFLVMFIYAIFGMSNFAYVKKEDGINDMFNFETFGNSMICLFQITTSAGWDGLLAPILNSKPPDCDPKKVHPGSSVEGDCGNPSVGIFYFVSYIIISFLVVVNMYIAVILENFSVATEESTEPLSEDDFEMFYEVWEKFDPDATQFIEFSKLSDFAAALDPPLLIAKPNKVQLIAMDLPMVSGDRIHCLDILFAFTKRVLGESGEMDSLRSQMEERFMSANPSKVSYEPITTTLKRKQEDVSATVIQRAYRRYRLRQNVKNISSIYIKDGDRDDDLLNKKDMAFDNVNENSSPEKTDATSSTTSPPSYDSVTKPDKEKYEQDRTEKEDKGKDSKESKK

Structure (SMILES)	IC50 (hNav1.5 [1]) [nM]	IC50 (hNav1.7 [2]) [nM]	IC50 (hNav1.3 [3]) [nM]	IC50 (hNav1.3 [4]) [nM]	IC50 (hNav1.7 [5]) [nM]	IC50 (hNav1.5 [6]) [nM]	IC50 (hNav1.7 [2]; [7]) [nM]	potency against NaV1.3, in words (hNav1.3 [3])	IC50 (hNav1.5 [6]; read-out: Nav1.5 Use IC50) [nM]
CC[C@H](C)[C@@H]1NC(=O)[C@@H]2CSSC[C@@H]3NC(=O)[C@H](C(C)C)NC(=O)[C@H](CC(C)C)NC(=O)[C@H](CC(N)=O)NC(=O)[C@@H]4CCCN4C(=O)[C@H](CCCNC(=N)N)NC(=O)[C@H](CSSC[C@H](NC(=O)[C@@H](N)Cc4cccc5ccccc45)C(=O)N[C@@H](CC(C)C)C(=O)NCC(=O)N[C@@H](Cc4ccccc4)C(=O)N[C@@H](CCSC)C(=O)N[C@@H](CCCNC(=N)N)C(=O)N[C@@H](CCCCN)C(=O)N2)NC(=O)[C@H](CSSC[C@@H](C(=O)N[C@@H](CCCCN)C(=O)N[C@@H](Cc2ccc(O)cc2)C(=O)N[C@H](C(=O)N[C@@H](Cc2ccccc2)C(N)=O)C(C)C)NC(=O)[C@H](Cc2c[nH]c4ccccc24)NC(=O)[C@H](CCCCN)NC(=O)[C@H](Cc2c[nH]cn2)NC(=O)[C@H]([C@@H](C)O)NC(=O)[C@H](CCCNC(=N)N)NC(=O)[C@H](CO)NC3=O)NC(=O)[C@H](CCCCN)NC(=O)[C@H](CC(=O)O)NC(=O)[C@H](CC(N)=O)NC(=O)[C@H](CC(=O)O)NC(=O)[C@@H]2CCCN2C1=O [SEQ ID NO: 77] (H-[1Nal]CLGFMRKCIPDNDKCCRPNLVCSRTHKWCKYVF-NH2; disulfide 2-17, 9-23, 16-30)	13400	110	66	140	23	7600			
CC[C@H](C)[C@@H]1NC(=O)[C@@H]2CSSC[C@@H]3NC(=O)[C@H](C(C)C)NC(=O)[C@H](CC(C)C)NC(=O)[C@H](CC(N)=O)NC(=O)[C@@H]4CCCN4C(=O)[C@H](CCCNC(=N)N)NC(=O)[C@H](CSSC[C@H](NC(=O)[C@@H](N)CC(=O)O)C(=O)N[C@@H](CC(C)C)C(=O)NCC(=O)N[C@@H](Cc4ccccc4)C(=O)N[C@@H](Cc4ccccc4)C(=O)N[C@@H](CCCNC(=N)N)C(=O)N[C@@H](CCCCN)C(=O)N2)NC(=O)[C@H](CSSC[C@@H](C(=O)N[C@@H](CCCCN)C(=O)N[C@@H](Cc2ccc(O)cc2)C(=O)N[C@H](C(=O)N[C@@H](Cc2ccccc2)C(N)=O)C(C)C)NC(=O)[C@H](Cc2c[nH]c4ccccc24)NC(=O)[C@H](CCCCN)NC(=O)[C@H](Cc2cnc[nH]2)NC(=O)[C@H]([C@@H](C)O)NC(=O)[C@H](CCCNC(=N)N)NC(=O)[C@H](CO)NC3=O)NC(=O)[C@H](CCCCN)NC(=O)[C@H](CC(=O)O)NC(=O)[C@H](CC(N)=O)NC(=O)[C@H](CC(=O)O)NC(=O)[C@@H]2CCCN2C1=O [SEQ ID NO: 89] (H-DCLGFFRKCIPDNDKCCRPNLVCSRTHKWCKYVF-NH2; disulfide 2-17, 9-23, 16-30)	9210	50	16	30	15	3160			
CC[C@H](C)[C@@H]1NC(=O)[C@@H]2CSSC[C@@H]3NC(=O)[C@H](C(C)C)NC(=O)[C@H](CC(C)C)NC(=O)[C@H](CC(N)=O)NC(=O)[C@@H]4CCCN4C(=O)[C@H](CCCNC(=N)N)NC(=O)[C@H](CSSC[C@H](NC(=O)[C@@H](N)CC(=O)O)C(=O)N[C@@H](CC(C)C)C(=O)NCC(=O)N[C@@H](Cc4ccc(-c5ccccc5)cc4)C(=O)N[C@@H](CCSC)C(=O)N[C@@H](CCCNC(=N)N)C(=O)N[C@@H](CCCCN)C(=O)N2)NC(=O)[C@H](CSSC[C@@H](C(=O)N[C@@H](CCCCN)C(=O)N[C@@H](Cc2ccc(O)cc2)C(=O)N[C@H](C(=O)N[C@@H](Cc2ccccc2)C(N)=O)C(C)C)NC(=O)[C@H](Cc2c[nH]c4ccccc24)NC(=O)[C@H](CCCCN)NC(=O)[C@H](Cc2c[nH]cn2)NC(=O)[C@H]([C@@H](C)O)NC(=O)[C@H](CCCNC(=N)N)NC(=O)[C@H](CO)NC3=O)NC(=O)[C@H](CCCCN)NC(=O)[C@H](CC(=O)O)NC(=O)[C@H](CC(N)=O)NC(=O)[C@H](CC(=O)O)NC(=O)[C@@H]2CCCN2C1=O [SEQ ID NO: 242]	3380		3		62		60	increased potency	2080
CC[C@H](C)[C@@H]1NC(=O)[C@@H]2CSSC[C@@H]3NC(=O)[C@H](C(C)C)NC(=O)[C@H](CC(C)C)NC(=O)[C@H](CC(N)=O)NC(=O)[C@@H]4CCCN4C(=O)[C@H](CCCNC(=N)N)NC(=O)[C@H](CSSC[C@H](NC(=O)[C@@H](N)CC(=O)O)C(=O)N[C@@H](CC(C)C)C(=O)NCC(=O)N[C@@H](Cc4ccccc4)C(=O)N[C@@H](CC4CCCCC4)C(=O)N[C@@H](CCCNC(=N)N)C(=O)N[C@@H](CCCCN)C(=O)N2)NC(=O)[C@H](CSSC[C@@H](C(=O)N[C@@H](CCCCN)C(=O)N[C@@H](Cc2ccc(O)cc2)C(=O)N[C@H](C(=O)N[C@@H](Cc2ccccc2)C(N)=O)C(C)C)NC(=O)[C@H](Cc2c[nH]c4ccccc24)NC(=O)[C@H](CCCCN)NC(=O)[C@H](Cc2cnc[nH]2)NC(=O)[C@H]([C@@H](C)O)NC(=O)[C@H](CCCNC(=N)N)NC(=O)[C@H](CO)NC3=O)NC(=O)[C@H](CCCCN)NC(=O)[C@H](CC(=O)O)NC(=O)[C@H](CC(N)=O)NC(=O)[C@H](CC(=O)O)NC(=O)[C@@H]2CCCN2C1=O [SEQ ID NO: 245]	2370		2		3	2680	20		
CC[C@H](C)[C@@H]1NC(=O)[C@@H]2CSSC[C@@H]3NC(=O)[C@H](C(C)C)NC(=O)[C@H](CC(C)C)NC(=O)[C@H](CC(N)=O)NC(=O)[C@@H]4CCCN4C(=O)[C@H](CCCNC(=N)N)NC(=O)[C@H](CSSC[C@H](NC(=O)[C@@H](N)CC(=O)O)C(=O)N[C@@H](CC(C)C)C(=O)NCC(=O)N[C@@H](Cc4ccccc4)C(=O)N[C@@H](CCSC)C(=O)N[C@@H](CCCNC(=N)N)C(=O)N[C@@H](CCCCN)C(=O)N2)NC(=O)[C@H](CSSC[C@@H](C(=O)N[C@@H](CCCCN)C(=O)N[C@@H](Cc2ccc(O)cc2)C(=O)N[C@H](C(=O)N[C@@H](Cc2ccccc2)C(N)=O)C(C)C)NC(=O)[C@H](Cc2c[nH]c4ccccc24)NC(=O)[C@H](CCCCN)NC(=O)[C@H]([C@@H](C)O)NC(=O)[C@H](CCCCN)NC(=O)[C@H](CCCNC(=N)N)NC(=O)[C@H](CO)NC3=O)NC(=O)[C@H](CCCCN)NC(=O)[C@H](CC(=O)O)NC(=O)[C@H](CC(N)=O)NC(=O)[C@H](CC(=O)O)NC(=O)[C@@H]2CCCN2C1=O [[Lys26;Thr27]GpTx-1(1-34)] (H-DCLGFMRKCIPDNDKCCRPNLVCSRKTKWCKYVF-NH2; disulfide 2-17, 9-23, 16-30)			16		4	1390			
CC[C@H](C)[C@@H]1NC(=O)[C@@H]2CSSC[C@@H]3NC(=O)[C@H](C(C)C)NC(=O)[C@H](CC(C)C)NC(=O)[C@H](CC(N)=O)NC(=O)[C@@H]4CCCN4C(=O)[C@H](Cc4c[nH]c5ccccc45)NC(=O)[C@H](CSSC[C@H](NC(=O)[C@@H](N)CC(=O)O)C(=O)N[C@@H](CC(C)C)C(=O)NCC(=O)N[C@@H](Cc4ccccc4)C(=O)N[C@@H](CCSC)C(=O)N[C@@H](CCCNC(=N)N)C(=O)N[C@@H](CCCCN)C(=O)N2)NC(=O)[C@H](CSSC[C@@H](C(=O)N[C@@H](CCCCN)C(=O)N[C@@H](Cc2ccc(O)cc2)C(=O)N[C@H](C(=O)N[C@@H](Cc2ccccc2)C(N)=O)C(C)C)NC(=O)[C@H](Cc2c[nH]c4ccccc24)NC(=O)[C@H](CCCCN)NC(=O)[C@H](Cc2c[nH]cn2)NC(=O)[C@H]([C@@H](C)O)NC(=O)[C@H](CCCNC(=N)N)NC(=O)[C@H](CO)NC3=O)NC(=O)[C@H](CCCCN)NC(=O)[C@H](CC(=O)O)NC(=O)[C@H](CC(N)=O)NC(=O)[C@H](CC(=O)O)NC(=O)[C@@H]2CCCN2C1=O [[Trp18]GpTx-1(1-34)] (H-DCLGFMRKCIPDNDKCCWPNLVCSRTHKWCKYVF-NH2; disulfide 2-17, 9-23, 16-30)			42		24	> 10000			
CC[C@H](C)[C@@H]1NC(=O)[C@@H]2CSSC[C@@H]3NC(=O)[C@H](C(C)C)NC(=O)[C@H](CC(C)C)NC(=O)[C@H](CC(N)=O)NC(=O)[C@@H]4CCCN4C(=O)[C@H](CCCNC(=N)N)NC(=O)[C@H](CSSC[C@H](NC(=O)[C@@H](N)CC(=O)O)C(=O)N[C@@H](CC(C)C)C(=O)NCC(=O)N[C@@H](Cc4ccccc4)C(=O)N[C@@H](CCSC)C(=O)N[C@@H](CCCNC(=N)N)C(=O)N[C@@H](CCCCN)C(=O)N2)NC(=O)[C@H](CSSC[C@@H](C(=O)N[C@@H](CCCCN)C(=O)N[C@@H](Cc2ccc(O)cc2)C(=O)N[C@@H](Cc2ccc(I)cc2)C(=O)N[C@@H](Cc2ccccc2)C(N)=O)NC(=O)[C@H](Cc2c[nH]c4ccccc24)NC(=O)[C@H](CCCCN)NC(=O)[C@H](Cc2c[nH]cn2)NC(=O)[C@H]([C@@H](C)O)NC(=O)[C@H](CCCNC(=N)N)NC(=O)[C@H](CO)NC3=O)NC(=O)[C@H](CCCCN)NC(=O)[C@H](CC(=O)O)NC(=O)[C@H](CC(N)=O)NC(=O)[C@H](CC(=O)O)NC(=O)[C@@H]2CCCN2C1=O [[pI-Phe33]GpTx-1(1-34)] (H-DCLGFMRKCIPDNDKCCRPNLVCSRTHKWCKY[Phe(4-I)]F-NH2; disulfide 2-17, 9-23, 16-30)			35		26	10400			

— US9340590B2 (priority 2011, dated 2016)
